Measurements published in patent US7247734B2 (Vernalis (Cambridge) Limited, priority 2001, dated 2007).

molecular target: T1, yeast HSP90 (Saccharomyces cerevisiae, UniProt P02829); experiment: Malachite green HSP90 ATPase assay; type: biochemical; conditions: ATPase IC50, activity range, ATPase assay
T1 construct: made in house; host or cells: E. coli
Excerpt: Two methods have been developed to measure the intrinsic ATPase activity of HSP90, using yeast HSP90 as a model system. The first method utilises a regenerating coupled enzyme assay. The second assay, based on the use of malachite green for the measurement of inorganic phosphate, was designed for high throughput screening (HTS) to identify novel HSP90 inhibitor drug candidates.
Colorimetric assays for the determination of phosphate, based on the formation of a phosphomolybdate complex, can be carried out in a few steps with inexpensive reagents and are well suited to the automation required for high throughput screening (see, e.g., Cogan et al., 1999). Enzymes that release inorganic phosphate are assayed using the reaction of the cationic dye, malachite green, with the a complex formed by a reaction of the inorganic phosphate with molybdate to generate a blue-green colour with an absorbance maximum at 610 nm (see, e.g., Baykov et al., 1988; Harder et al., 1994; Maehama et al., 2000). The method has been used in both high throughput (see, e.g., Rumsfeld et al., 2000) and ultra-high throughput screening formats (see, e.g., Layery et al., 2001) for a variety of non-HSP90 ATPases. However, this method is complicated by the non-enzymatic hydrolysis of ATP in the presence of acidic malachite green reagent, causing an increase in colour (see, e.g., Chan et al., 1986; Henkel et al., 1988). This process is mediated by molybdate and can be overcome by the addition of sodium citrate immediately after the reagent (see, e.g., Lanzetta et al., 1979; Schirmer et al., 1998; Baginski et al., 1975). This modification has been adapted to the 96-well microtitre plate assay previously described for other ATPases (see, e.g., Lanzetta et al., 1979) to produce the following protocol for HSP90 ATPase, which is suitable for high throughput screening.
Chemicals are of the highest purity commercially available and all aqueous solutions are made up in AR water. Because of the need to minimise contamination with inorganic phosphate, precautions should be taken with solutions and apparatus used in the assays. Glassware and pH meters are rinsed with double distilled or deionised water before use and, wherever possible, plastic ware should be used. Gloves are worn for all procedures. • (1) Immulon 96-well (Thermo Labsystems, Basingstoke, UK) or Cliniplate 384-well flat-bottomed polystyrene multiwell plates (Thermo Labsystems). • (2) Assay buffer of (a) 100 mM Tris-HCl, pH 7.4, (b) 20 mM KCl, (c) 6 mM MgCl2. Stored at 4° C. • (3) 0.0812% (w/v) malachite green (M 9636, Sigma Aldrich Ltd., Poole, UK). Stored at room temperature. • (4) 2.32% (w/v) polyvinyl alcohol USP (P 1097, Sigma Aldrich Ltd, Poole, UK) in boiling water (see Comment 1), allowed to cool, and stored at room temperature. • (5) 5.72% (w/v) ammonium molybdate in 6 M hydrochloric acid. Stored at room temperature. • (6) 34% (w/v) sodium citrate. Stored at room temperature. • (7) ATP, disodium salt, special quality (519979, Boehringer Mannheim, Lewes, UK). Stored at 4° C. • (8) E. coli expressed yeast HSP90 protein, purified >95% (see, e.g., Panaretou et al., 1998) and stored at −80° C. as 10 μl aliquots containing 0.5 mg of protein. Method
The following protocol was used: • (1) On the day of use, prepare the malachite green reagent from the stock solutions. Mix (a) 2 parts of malachite green, (b) 1 part of polyvinyl alcohol, (c) 1 part of ammonium molybdate, and (d) 2 parts of water. Initially, the reagent is a dark brown colour, but after standing at room temperature for about 2 h, this becomes a golden yellow colour and is ready for use. • (2) For the high throughput screening assays, the test compounds are dissolved at 200 μM in 2.0% DMSO and contained in daughter plates derived from the chemical libraries. Transfer 5 μl of each sample from the daughter plate to each well of the assay plate using automated equipment (see Comment 3). This represents a final concentration in the well of 40 μM.

T1 sequence (P02829 whole entry, looked up): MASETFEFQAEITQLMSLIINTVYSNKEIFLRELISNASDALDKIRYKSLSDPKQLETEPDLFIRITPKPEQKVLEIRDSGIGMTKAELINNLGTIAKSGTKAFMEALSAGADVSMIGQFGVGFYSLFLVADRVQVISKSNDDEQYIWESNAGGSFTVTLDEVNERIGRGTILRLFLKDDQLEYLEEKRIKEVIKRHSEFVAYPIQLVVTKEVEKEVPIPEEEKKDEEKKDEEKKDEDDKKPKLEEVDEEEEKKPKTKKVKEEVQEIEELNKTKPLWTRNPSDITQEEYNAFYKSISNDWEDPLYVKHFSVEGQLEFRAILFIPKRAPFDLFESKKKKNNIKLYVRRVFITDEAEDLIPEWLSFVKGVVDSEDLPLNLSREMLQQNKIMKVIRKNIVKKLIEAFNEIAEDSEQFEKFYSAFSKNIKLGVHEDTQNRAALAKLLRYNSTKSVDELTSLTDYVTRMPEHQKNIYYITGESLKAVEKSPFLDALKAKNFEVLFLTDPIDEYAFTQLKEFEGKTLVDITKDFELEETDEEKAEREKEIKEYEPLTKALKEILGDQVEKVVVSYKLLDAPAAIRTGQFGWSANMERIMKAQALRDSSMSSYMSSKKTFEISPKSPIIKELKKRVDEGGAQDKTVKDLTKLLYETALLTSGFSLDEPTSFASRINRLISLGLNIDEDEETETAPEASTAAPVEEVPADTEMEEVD

IC50	SMILES
< 50 µM	COc1ccc(-c2c(-c3cc(Cl)c(O)cc3O)n[nH]c2C(=O)O)cc1 [Example 167, 5-(5-Chloro-2,4-dihydroxy-phenyl)-4-(4-methoxy-phenyl)-2H-pyrazole-3-carboxylic acid]
< 50 µM	CNC(=O)c1[nH]nc(-c2cc(Cl)c(O)cc2O)c1-c1ccc(OC)cc1 [Example 168, 5-(5-Chloro-2,4-dihydroxy-phenyl)-4-(4-methoxy-phenyl)-2H-pyrazole-3-carboxylic acid methylamide]
< 50 µM	COc1ccc(-c2c(-c3cc(Cl)c(O)cc3O)n[nH]c2C(=O)NC(C)C)cc1 [Example 170, 5-(5-Chloro-2,4-dihydroxy-phenyl)-4-(4-methoxy-phenyl)-2H-pyrazole-3-carboxylic acid isopropylamide]
< 50 µM	COc1ccc(-c2c(-c3cc(Cl)c(O)cc3O)n[nH]c2C(N)=O)cc1 [Example 172, 5-(5-Chloro-2,4-dihydroxy-phenyl)-4-(4-methoxy-phenyl)-2H-pyrazole-3-carboxylic acid amide]

same assay, conditions: activity class; read-out: Hsp90 IC50

IC50	SMILES
> 10 µM	CC(=O)Nc1ccc(-c2n[nH]c(C)c2-c2ccc3c(c2)OCCO3)cc1 [Example 112]
> 10 µM	CC(=O)Nc1cccc(-c2n[nH]c(C)c2-c2ccc3c(c2)OCCO3)c1 [Example 113]
> 10 µM	CCOC(=O)c1ccc(-c2n[nH]c(C)c2-c2ccc3c(c2)OCCO3)cc1 [Example 114]
> 10 µM	Cc1[nH]nc(-c2ccc(C(=O)O)cc2)c1-c1ccc2c(c1)OCCO2 [Example 115]
> 10 µM	CCOC(=O)c1cccc(-c2n[nH]c(C)c2-c2ccc3c(c2)OCCO3)c1 [Example 116]
> 10 µM	Cc1[nH]nc(-c2ccc(C#N)cc2)c1-c1ccc2c(c1)OCCO2 [Example 117]
> 10 µM	Cc1[nH]nc(-c2cccc(C#N)c2)c1-c1ccc2c(c1)OCCO2 [Example 118]
> 10 µM	CCc1cc(-c2n[nH]c(C)c2-c2nc3ccccc3s2)c(O)cc1OCC(=O)NN [Example 119]
> 10 µM	CCc1cc(-c2n[nH]cc2-c2ccc3c(c2)OCO3)c(O)cc1OC [Example 120]
> 10 µM	Cc1[nH]nc(-c2ccc3c(c2O)OCO3)c1-c1ccc2c(c1)OCCO2 [Example 121]
> 10 µM	COc1ccc(-c2n[nH]cc2-c2ccc3c(c2)OCCO3)c(O)c1 [Example 122]
> 10 µM	Cc1[nH]nc(-c2ccc(OCC(=O)O)cc2O)c1-c1ccc(F)cc1 [Example 123]
> 10 µM	CCc1cc(-c2n[nH]cc2-c2nc(C)cs2)c(O)cc1OCc1cccc(C)c1 [Example 124]
> 10 µM	O=C(O)COc1ccc(-c2n[nH]cc2-c2ccc3c(c2)OCCO3)c(O)c1 [Example 125]
> 10 µM	CCCc1cc(-c2n[nH]cc2-c2ccccc2)c(O)cc1OC [Example 126]
> 10 µM	Cc1[nH]nc(-c2cc(Cl)c(O)cc2O)c1-c1ccccc1 [Example 127]
> 10 µM	CCc1cc(-c2n[nH]cc2-c2ccccc2)c(O)cc1OC [Example 128]
> 10 µM	Cc1nc(-c2c[nH]nc2-c2ccc(O)cc2O)cs1 [Example 129]
> 10 µM	CCOc1cc(O)c(-c2n[nH]cc2-c2nc(C)cs2)cc1CC [Example 130]

IC50	SMILES
> 10 µM	CCc1cc(-c2n[nH]cc2-c2nc(C)cs2)c(O)cc1OC [Example 131]
> 10 µM	COc1ccc(-c2c(-c3ccc(O)c(C)c3O)n[nH]c2C)cc1 [Example 132]
> 10 µM	Cc1ccc(-n2cc(-c3c[nH]nc3-c3ccc(O)cc3O)cn2)cc1 [Example 136]
> 10 µM	Cc1[nH]nc(-c2ccc(O)cc2O)c1-c1cnn(-c2ccccc2)c1 [Example 137]
> 10 µM	Cc1[nH]nc(-c2cc(Cl)c(O)c(Cl)c2O)c1-c1ccccc1 [Example 138]
> 10 µM	CCCc1cc(-c2n[nH]cc2-c2ccc3c(c2)OCO3)c(O)cc1O [Example 140]
10 to 100 µM	CCc1cc(-c2n[nH]cc2-c2ccc(OC)cc2)c(O)cc1O [Example 141]
> 10 µM	Oc1ccc(-c2n[nH]c(C(F)(F)F)c2-c2ccc3c(c2)OCCO3)c(O)c1 [Example 142]
> 10 µM	Cc1ncc(-c2c(-c3ccc(O)cc3O)n[nH]c2C(F)(F)F)s1 [Example 143]
> 10 µM	Oc1ccc(-c2n[nH]c(C(F)(F)F)c2-c2ccccc2Cl)c(O)c1 [Example 144]
> 10 µM	CCc1cc(-c2n[nH]cc2-c2cnn(-c3ccccc3)c2)c(O)cc1O [Example 145]
> 10 µM	CCc1cc(-c2n[nH]c(C)c2-c2nc3ccccc3s2)c(O)cc1O [Example 146]
> 10 µM	COc1ccc(-c2c(-c3cc(Cl)c(F)cc3O)n[nH]c2C)cc1 [Example 147]
> 10 µM	Cc1[nH]nc(-c2cccc(Cl)c2Cl)c1-c1ccc2c(c1)OCCO2 [Example 150]
> 10 µM	COc1ccc(-c2c(C)n[nH]c2-c2cnc(N)nc2)cc1 [Example 151, 5-[4-(4-Methoxy-phenyl)-5-methyl-2H-pyrazol-3-yl]-pyrimidin-2-ylamine]
> 10 µM	COc1ccc(-c2c(C)n[nH]c2-c2cc(C)nc(N)n2)cc1 [Example 152, 4-[4-(4-Methoxy-phenyl)-5-methyl-2H-pyrazol-3-yl]-6-methyl-pyrimidin-2-ylamine]
< 10 µM	N#CCCCCOc1cccc(-c2c[nH]nc2-c2cc(Cl)c(O)cc2O)c1 [Example 155]
< 10 µM	COc1ccc(-c2ccc(-c3c[nH]nc3-c3cc(Cl)c(O)cc3O)cc2)cc1OC [Example 157]

same assay, conditions: activity range, ATPase assay; read-out: ATPase IC50

IC50	SMILES
> 50 µM	Cc1[nH]nc(-c2ccc(C(N)=O)cc2)c1-c1ccc2c(c1)OCCO2 [Example 158]
> 50 µM	Cc1[nH]nc(-c2ccc(C(=O)NCC3CCCO3)cc2)c1-c1ccc2c(c1)OCCO2 (centres unmarked) [Example 159]
> 50 µM	Cc1[nH]nc(-c2ccc(C(=O)Nc3cccnc3)cc2)c1-c1ccc2c(c1)OCCO2 [Example 160]
> 50 µM	Cn1cc(-c2ccc(Br)cc2)c(-c2cc(Cl)c(O)cc2O)n1 [Example 161, 4-[4-(4-Bromo-phenyl)-1-methyl-1H-pyrazol-3-yl]-6-chloro-benzene-1,3-diol]
> 50 µM	CCc1cc(-c2nn(C)cc2-c2ccc(OC)c(OC)c2)c(O)cc1O [Example 162, 4-[4-(3,4-Dimethoxy-phenyl)-1-methyl-1H-pyrazol-3-yl]-6-ethyl-benzene-1,3-diol]
> 50 µM	Cc1c(-c2ccc(Br)cc2)c(-c2cc(Cl)c(O)cc2O)nn1C [Example 163]
> 50 µM	Cc1c(-c2ccccc2)c(-c2cc(Cl)c(O)cc2O)nn1C [Example 164, 4-Chloro-6-(1,5-dimethyl-4-phenyl-1H-pyrazol-3-yl)-benzene-1,3-diol]
> 50 µM	COc1ccc(-c2cn(C)nc2-c2cc(Cl)c(O)cc2O)cc1OC [Example 165]
> 50 µM	OCCn1cc(-c2ccc(Br)cc2)c(-c2cc(Cl)c(O)cc2O)n1 [Example 166, 4-[4-(4-Bromo-phenyl)-1-(2-hydroxy-ethyl)-1H-pyrazol-3-yl]-6-chloro-benzene-1,3-diol]
< 50 µM	COc1ccc(-c2c(-c3cc(Cl)c(O)cc3O)n[nH]c2C(=O)NCc2ccccc2)cc1 [Example 171, 5-(5-Chloro-2,4-dihydroxy-phenyl)-4-(4-methoxy-phenyl)-2H-pyrazole-3-carboxylic acid benzylamide]
< 50 µM	Oc1cc(O)c(-c2n[nH]cc2-c2ccc3c(c2)CCO3)cc1Cl [Example 173]
< 50 µM	Oc1cc(O)c(-c2n[nH]cc2-c2ccsc2)cc1Cl [Example 174]
